Legend:
[1] = Cytotoxicity against human HL-60(TB) cells assessed as cell growth at 10^-5 M after 48 hrs by sulforhodamine B assay; format: functional; conditions: HL-60, 48 h, read-out: Activity
[2] = Cytotoxicity against human UACC257 cells assessed as cell growth at 10^-5 M after 48 hrs by sulforhodamine B assay; format: functional; conditions: UACC-257, 48 h, read-out: Activity
[3] = Cytotoxicity against human HOP92 cells assessed as cell growth at 10^-5 M after 48 hrs by sulforhodamine B assay; format: functional; conditions: HOP-92, 48 h, read-out: Activity
HT-29 = assay: Cytotoxicity against human HT-29 cells assessed as cell growth at 10^-5 M after 48 hrs by sulforhodamine B assay; format: functional; conditions: HT-29, 48 h, read-out: Activity
[4] = Cytotoxicity against human SW620 cells assessed as cell growth at 10^-5 M after 48 hrs by sulforhodamine B assay; format: functional; conditions: SW-620, 48 h, read-out: Activity
[5] = Cytotoxicity against human OVCAR3 cells assessed as cell growth at 10^-5 M after 48 hrs by sulforhodamine B assay; format: functional; conditions: OVCAR-3, 48 h, read-out: Activity
[6] = Cytotoxicity against human UO31 cells assessed as cell growth at 10^-5 M after 48 hrs by sulforhodamine B assay; format: functional; conditions: UO-31, 48 h, read-out: Activity
[7] = Cytotoxicity against human SF295 cells assessed as cell growth at 10^-5 M after 48 hrs by sulforhodamine B assay; format: functional; conditions: SF-295, 48 h, read-out: Activity
EKVX = assay: Cytotoxicity against human EKVX cells assessed as cell growth at 10^-5 M after 48 hrs by sulforhodamine B assay; format: functional; conditions: read-out: Activity
[8] = Cytotoxicity against human SKOV3 cells assessed as cell growth at 10^-5 M after 48 hrs by sulforhodamine B assay; format: functional; conditions: SK-OV-3, 48 h, read-out: Activity
[9] = Cytotoxicity against human Caki1 cells assessed as cell growth at 10^-5 M after 48 hrs by sulforhodamine B assay; format: functional; conditions: CAKI-1, 48 h, read-out: Activity
MDA-MB-468 = assay: Cytotoxicity against human MDA-MB-468 cells assessed as cell growth at 10^-5 M after 48 hrs by sulforhodamine B assay; format: functional; conditions: MDA-MB-468, 48 h, read-out: Activity
[10] = Cytotoxicity against human OVCAR8 cells assessed as cell growth at 10^-5 M after 48 hrs by sulforhodamine B assay; format: functional; conditions: OVCAR-8, 48 h, read-out: Activity
[11] = Cytotoxicity against human SF268 cells assessed as cell growth at 10^-5 M after 48 hrs by sulforhodamine B assay; format: functional; conditions: SF-268, 48 h, read-out: Activity
Malme-3M = assay: Cytotoxicity against human MALME-3M cells assessed as cell growth at 10^-5 M after 48 hrs by sulforhodamine B assay; format: functional; conditions: read-out: Activity
SK-MEL-5 = assay: Cytotoxicity against human SK-MEL-5 cells assessed as cell growth at 10^-5 M after 48 hrs by sulforhodamine B assay; format: functional; conditions: SK-MEL-5, 48 h, read-out: Activity
[12] = Cytotoxicity against human PC3 cells assessed as cell growth at 10^-5 M after 48 hrs by sulforhodamine B assay; format: functional; conditions: PC-3, 48 h, read-out: Activity
K562 = assay: Cytotoxicity against human K562 cells assessed as cell growth at 10^-5 M after 48 hrs by sulforhodamine B assay; format: functional; conditions: K562, 48 h, read-out: Activity
T47D = assay: Cytotoxicity against human T47D cells assessed as cell growth at 10^-5 M after 48 hrs by sulforhodamine B assay; format: functional; conditions: read-out: Activity
NCI-H226 = assay: Cytotoxicity against human NCI-H226 cells assessed as cell growth at 10^-5 M after 48 hrs by sulforhodamine B assay; format: functional; conditions: NCI-H226, 48 h, read-out: Activity
MDA-MB-231 = assay: Cytotoxicity against human MDA-MB-231 cells assessed as cell growth at 10^-5 M after 48 hrs by sulforhodamine B assay; format: functional; conditions: MDA-MB-231, 48 h, read-out: Activity
SK-MEL-28 = assay: Cytotoxicity against human SK-MEL-28 cells assessed as cell growth at 10^-5 M after 48 hrs by sulforhodamine B assay; format: functional; conditions: SK-MEL-28, 48 h, read-out: Activity
786-0 = assay: Cytotoxicity against human 786-0 cells assessed as cell growth at 10^-5 M after 48 hrs by sulforhodamine B assay; format: functional; conditions: 786-0, 48 h, read-out: Activity
SK-MEL-2 = assay: Cytotoxicity against human SK-MEL-2 cells assessed as cell growth at 10^-5 M after 48 hrs by sulforhodamine B assay; format: functional; conditions: SK-MEL-2, 48 h, read-out: Activity
SR = assay: Cytotoxicity against human SR cells assessed as cell growth at 10^-5 M after 48 hrs by sulforhodamine B assay; format: functional; conditions: read-out: Activity
[13] = Cytotoxicity against human OVCAR5 cells assessed as cell growth at 10^-5 M after 48 hrs by sulforhodamine B assay; format: functional; conditions: OVCAR-5, 48 h, read-out: Activity
[14] = Cytotoxicity against human RXF393 cells assessed as cell growth at 10^-5 M after 48 hrs by sulforhodamine B assay; format: functional; conditions: RXF 393, 48 h, read-out: Activity
M14 = assay: Cytotoxicity against human M14 cells assessed as cell growth at 10^-5 M after 48 hrs by sulforhodamine B assay; format: functional; conditions: M14, 48 h, read-out: Activity
KM12 = assay: Cytotoxicity against human KM12 cells assessed as cell growth at 10^-5 M after 48 hrs by sulforhodamine B assay; format: functional; conditions: KM12, 48 h, read-out: Activity
NCI-H522 = assay: Cytotoxicity against human NCI-H522 cells assessed as cell growth at 10^-5 M after 48 hrs by sulforhodamine B assay; format: functional; conditions: NCI-H522, 48 h, read-out: Activity
NCI-H460 = assay: Cytotoxicity against human NCI-H460 cells assessed as cell growth at 10^-5 M after 48 hrs by sulforhodamine B assay; format: functional; conditions: NCI-H460, 48 h, read-out: Activity
[15] = Cytotoxicity against human HCT116 cells assessed as cell growth at 10^-5 M after 48 hrs by sulforhodamine B assay; format: functional; conditions: HCT-116, 48 h, read-out: Activity
NCI-H23 = assay: Cytotoxicity against human NCI-H23 cells assessed as cell growth at 10^-5 M after 48 hrs by sulforhodamine B assay; format: functional; conditions: NCI-H23, 48 h, read-out: Activity
[16] = Cytotoxicity against human Hs 578T cells assessed as cell growth at 10^-5 M after 48 hrs by sulforhodamine B assay; format: functional; conditions: read-out: Activity
Dihydrofolate reductase = target: T1, Dihydrofolate reductase (Homo sapiens, UniProt P00374); assay: Inhibition of human DHFR assessed as conversion of dihydrofolic acid to tetrahydrfolic acid by enzyme immunoassay in presence of NADPH
T1 sequence (P00374 whole entry): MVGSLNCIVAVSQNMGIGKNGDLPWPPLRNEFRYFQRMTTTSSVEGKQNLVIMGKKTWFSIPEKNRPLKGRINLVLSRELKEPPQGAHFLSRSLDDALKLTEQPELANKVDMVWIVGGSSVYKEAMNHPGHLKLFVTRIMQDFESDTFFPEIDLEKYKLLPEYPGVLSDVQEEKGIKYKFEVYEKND

CC1=NN(c2cccc(Cl)c2)C(=O)/C1=C\c1cn(CC(O)Cn2cc(/C=C3\C(=O)N(c4cccc(Cl)c4)N=C3C)c3ccccc32)c2ccccc12
growth at 10 µM [1]: 109%
growth at 10 µM [2]: 116%
growth at 10 µM [3]: 122%
growth at 10 µM (HT-29): 112%
growth at 10 µM [4]: 108%
growth at 10 µM [5]: 102%
growth at 10 µM [6]: 86.4%
growth at 10 µM [7]: 111%
growth at 10 µM (EKVX): 101%
growth at 10 µM [8]: 110%
growth at 10 µM [9]: 98.8%
growth at 10 µM (MDA-MB-468): 123%
growth at 10 µM [10]: 115%
growth at 10 µM [11]: 104%
growth at 10 µM (Malme-3M): 89.6%
growth at 10 µM (SK-MEL-5): 101%
growth at 10 µM [12]: 104%
growth at 10 µM (K562): 101%
growth at 10 µM (T47D): 88%
growth at 10 µM (NCI-H226): 109%
growth at 10 µM (MDA-MB-231): 97.2%
growth at 10 µM (SK-MEL-28): 109%
growth at 10 µM (786-0): 110%
growth at 10 µM (SK-MEL-2): 115%
growth at 10 µM (SR): 96.3%
growth at 10 µM [13]: 102%
growth at 10 µM [14]: 116%
growth at 10 µM (M14): 101%
growth at 10 µM (KM12): 100%
growth at 10 µM (NCI-H522): 97.6%
growth at 10 µM (NCI-H460): 111%
growth at 10 µM [15]: 99.3%
growth at 10 µM (NCI-H23): 105%
growth at 10 µM [16]: 102%

COc1cc(/C=C2\C(=O)Nc3ccccc32)cc(OC)c1O
growth at 10 µM [1]: 1.88%
growth at 10 µM [2]: 62.6%
growth at 10 µM (HT-29): 75.7%
growth at 10 µM [4]: 31.5%
growth at 10 µM [5]: 46.9%
growth at 10 µM [6]: 60%
growth at 10 µM [7]: 60.6%
growth at 10 µM (EKVX): 110%
IC50 (Dihydrofolate reductase): 0.5 µM
growth at 10 µM [8]: 93.5%
growth at 10 µM [9]: 37.7%
growth at 10 µM (MDA-MB-468): 20.4%
growth at 10 µM [10]: 78.5%
growth at 10 µM [11]: 78.3%
growth at 10 µM (Malme-3M): 118%
growth at 10 µM (SK-MEL-5): 45.7%
growth at 10 µM [12]: 51.2%
growth at 10 µM (K562): 7.58%
growth at 10 µM (T47D): 49.6%
growth at 10 µM (MDA-MB-231): 63.1%
growth at 10 µM (SK-MEL-28): 90.2%
growth at 10 µM (786-0): 83.2%
growth at 10 µM (SK-MEL-2): 50.4%
growth at 10 µM (SR): -10.3%
growth at 10 µM [13]: 112%
growth at 10 µM [14]: 71.3%
growth at 10 µM (M14): 53.6%
growth at 10 µM (KM12): 32.2%
growth at 10 µM (NCI-H522): 8.78%
growth at 10 µM (NCI-H460): 40.1%
growth at 10 µM [15]: 46.4%
growth at 10 µM (NCI-H23): 66.4%
growth at 10 µM [16]: 18.4%
